Laboratory results: patent US9662372B2 (priority 2013, dated 2017)

Tests used:
C. difficile ATCC 9689 [1] = format: cell-based, Clostridium difficile
C. difficile ATCC 9689 [2] = experiment: Bacterial mass in wells of PM panels (OD 750 nm); format: cell-based, Clostridium difficile; conditions: OD difference with vs without C. difficile, 72 h
[3] = nitrogen source (PM03/06/07/08)
[4] = phosphorus/sulfur source panel PM04

| Molecule | C. difficile Mass (C. difficile ATCC 9689 [2]; carbon source (PM01/PM02)) | C. difficile Mass (C. difficile ATCC 9689 [2]; [3]) | further results |
| --- | --- | --- | --- |
| 2,3-Butanone | 0.0572 OD (750 nm) |  | Toxin (C. difficile ATCC 9689 [1]): <0.122 ng/mL |
| CC(O)C(N)=O (racemic) [D,L-Lactamide] |  | 0.04 OD (750 nm) | Toxin (C. difficile ATCC 9689 [1]): 2859 ng/mL |
| NC(=O)CCCCC1CCSS1 (racemic) [D,L-Lipoamide] |  |  | Toxin (C. difficile ATCC 9689 [1]): <0.122 ng/mL; C. difficile Mass (C. difficile ATCC 9689 [2]; [4]): 0.0265 OD (750 nm) |
| CCCCCCC(N)C(=O)O (racemic) [D,L-α-Amino-Caprylic acid] |  | 0.0484 OD (750 nm) |  |
| NCCO [2-Aminoethanol] | 0.0853 OD (750 nm) |  | Toxin (C. difficile ATCC 9689 [1]): 173 ng/mL |
| O=S(=O)(O)CCO [2-Hydroxyethane Sulfonic acid] |  |  | C. difficile Mass (C. difficile ATCC 9689 [2]; [4]): 0.0428 OD (750 nm) |
| CC(N)=O [Acetamide] |  | 0.0458 OD (750 nm) |  |
| Nc1ncnc2nc[nH]c12 [Adenine] |  | 0.031 OD (750 nm) | Toxin induction (rank, in words) (C. difficile ATCC 9689 [1]): strongest toxin inducer |
| Nc1ncnc2c1ncn2[C@@H]1O[C@H](COP(=O)(O)O)[C@@H](O)[C@H]1O [Adenosine 5′-Monophosphate] |  |  | C. difficile Mass (C. difficile ATCC 9689 [2]; [4]): 0.0495 OD (750 nm) |
| Nc1ncnc2c1ncn2[C@@H]1O[C@H](CO)[C@@H](O)[C@H]1O [Adenosine] |  | 0.0472 OD (750 nm) | C. difficile Mass (C. difficile ATCC 9689 [2]; nutritional stimulant panel PM05): 0.0414 OD (750 nm) |
| N=C(N)NCCCCN [Agmatine] |  | 0.043 OD (750 nm) |  |
| NC(=O)NC1NC(=O)NC1=O (stereo not shown) [Allantoin] |  | 0.0425 OD (750 nm) |  |
| OC[C@H]1O[C@@H](Oc2ccc(O)cc2)[C@H](O)[C@@H](O)[C@@H]1O [Arbutin] | 0.128 OD (750 nm) |  |  |
| NC(=O)NC(N)=O [Biuret] |  | 0.0394 OD (750 nm) |  |
| O=C(O)CC(Br)C(=O)O (stereo not shown) [Bromosuccinic Acid] | 0.0335 OD (750 nm) |  |  |
| CCCCS(=O)(=O)O [Butane Sulfonic acid] |  |  | C. difficile Mass (C. difficile ATCC 9689 [2]; [4]): 0.0398 OD (750 nm) |
| CCCCCCCCCC(=O)O [Capric acid] | 0.014 OD (750 nm) |  |  |
| CCCCCC(=O)O [Caproic acid] | 0.0568 OD (750 nm) |  |  |
| Nc1ccn([C@@H]2O[C@@H]3COP(=O)(O)O[C@H]3[C@H]2O)c(=O)n1 [Cytidine 3′,5′-Cyclic Monophosphate] |  |  | Toxin (C. difficile ATCC 9689 [1]): 321 ng/mL; C. difficile Mass (C. difficile ATCC 9689 [2]; [4]): 0.0106 OD (750 nm) |
| Nc1ccn([C@@H]2O[C@H](CO)[C@@H](O)[C@H]2O)c(=O)n1 [Cytidine] |  | 0.0456 OD (750 nm) |  |
| Nc1cc[nH]c(=O)n1 [Cytosine] |  | 0.0361 OD (750 nm) |  |
| C[C@@H](N)C(=O)O [D-Alanine] | 0.1233 OD (750 nm) | 0.038 OD (750 nm) |  |

| Molecule | C. difficile Mass (C. difficile ATCC 9689 [2]; carbon source (PM01/PM02)) | C. difficile Mass (C. difficile ATCC 9689 [2]; [3]) | further results |
| --- | --- | --- | --- |
| NC(=O)C[C@@H](N)C(=O)O [D-Asparagine] |  | 0.0321 OD (750 nm) |  |
| N[C@H](CC(=O)O)C(=O)O [D-Aspartic acid] | 0.0269 OD (750 nm) | 0.0109 OD (750 nm) |  |
| O=C(CO)[C@@H](O)[C@H](O)[C@H](O)CO [D-Fructose] | 0.1435 OD (750 nm) |  |  |
| N[C@H]1C(O)O[C@H](CO)[C@H](O)[C@@H]1O (stereo partly drawn) [D-Galactosamine] |  | 0.0374 OD (750 nm) |  |
| N[C@H]1C(O)O[C@H](CO)[C@@H](O)[C@@H]1O (stereo partly drawn) [D-Glucosamine] |  | 0.0447 OD (750 nm) |  |
| NCCCC[C@@H](N)C(=O)O [D-Lysine] |  | 0.0489 OD (750 nm) |  |
| O=C[C@@H](O)[C@@H](O)[C@H](O)CO [D-Lyxose] | 0.1508 OD (750 nm) |  |  |
| N[C@@H]1C(O)O[C@H](CO)[C@@H](O)[C@@H]1O (stereo partly drawn) [D-Mannosamine] |  | 0.0364 OD (750 nm) |  |
| N[C@H](CO)C(=O)O [D-Serine] | 0.1114 OD (750 nm) | 0.0465 OD (750 nm) |  |
| O=C(CO)[C@@H](O)[C@@H](O)[C@H](O)CO [D-Tagatose] | 0.138 OD (750 nm) |  |  |
| C[C@H](O)[C@@H](N)C(=O)O [D-Threonine] | 0.0923 OD (750 nm) |  |  |
| O=C[C@H](O)[C@@H](O)[C@H](O)[C@H](O)CO [D-glucose] |  |  | Average dye reduction rate of CHO-k1 in the presence of C. difficile supernatant (C. difficile ATCC 9689 [1]): 57.19; Corrected dye reduction rate (C. difficile ATCC 9689 [1]): 54.6 |
| CCN [Ethylamine] |  | 0.0401 OD (750 nm) |  |
| NCCN [Ethylenediamine] |  | 0.0369 OD (750 nm) |  |
| NC=O [Formamide] |  | 0.0418 OD (750 nm) |  |
| O=C(O)/C=C/C(=O)O [Fumaric Acid] | 0.018 OD (750 nm) |  |  |
| NC(=O)[C@@H](O)[C@@H](O)[C@H](O)[C@@H](O)C=O [Glucuronamide] |  | 0.0369 OD (750 nm) |  |
| Nc1nc2c(ncn2[C@@H]2O[C@H](CO)[C@@H](O)[C@H]2O)c(=O)[nH]1 [Guanosine] |  | 0.0092 OD (750 nm) |  |
| NCCc1c[nH]cn1 [Histamine] |  | 0.0424 OD (750 nm) |  |
| NO [Hydroxylamine] |  | 0.0228 OD (750 nm) | Toxin (C. difficile ATCC 9689 [1]): 334 ng/mL |
| NCCS(=O)O [Hypotaurine] |  |  | C. difficile Mass (C. difficile ATCC 9689 [2]; [4]): 0.0438 OD (750 nm) |
| C[C@H](N)C(=O)O [L-Alanine] | 0.113 OD (750 nm) |  |  |

| Molecule | C. difficile Mass (C. difficile ATCC 9689 [2]; carbon source (PM01/PM02)) | C. difficile Mass (C. difficile ATCC 9689 [2]; [3]) | further results |
| --- | --- | --- | --- |
| N=C(N)NCCC[C@H](N)C(=O)O [L-Arginine] |  | 0.046 OD (750 nm) |  |
| NC(=O)NCCC[C@H](N)C(=O)O [L-Citrulline] |  | 0.0377 OD (750 nm) |  |
| N[C@@H](CS)C(=O)O [L-Cysteine] |  | 0.0394 OD (750 nm) |  |
| NC(=O)CC[C@H](N)C(=O)O [L-Glutamine] |  | 0.0339 OD (750 nm) |  |
| N[C@@H](Cc1c[nH]cn1)C(=O)O [L-Histidine] |  | 0.0361 OD (750 nm) |  |
| N[C@@H](CCO)C(=O)O [L-Homoserine] | 0.0071 OD (750 nm) | 0.0293 OD (750 nm) |  |
| CC[C@H](C)[C@H](N)C(=O)O [L-Isoleucine] |  | 0.0563 OD (750 nm) |  |
| CC(C)C[C@H](N)C(=O)O [L-Leucine] | 0.089 OD (750 nm) |  |  |
| NCCCC[C@H](N)C(=O)O [L-Lysine] |  | 0.0436 OD (750 nm) |  |
| CS(=O)(=O)CC[C@H](N)C(=O)O [L-Methionine Sulfone] |  |  | Toxin (C. difficile ATCC 9689 [1]): <0.122 ng/mL; C. difficile Mass (C. difficile ATCC 9689 [2]; [4]): 0.0446 OD (750 nm) |
| CSCC[C@H](N)C(=O)O [L-Methionine] | 0.0818 OD (750 nm) |  |  |
| NCCC[C@H](N)C(=O)O [L-Ornithine] |  | 0.0369 OD (750 nm) |  |
| N[C@@H](Cc1ccccc1)C(=O)O [L-Phenylalanine] | 0.0714 OD (750 nm) |  |  |
| O=C(O)[C@@H]1CCCN1 [L-Proline] |  | 0.0394 OD (750 nm) | Toxin induction (rank, in words) (C. difficile ATCC 9689 [1]): highest toxin inducer in the amino acid category |
| N[C@@H](CO)C(=O)O [L-Serine] | 0.0635 OD (750 nm) |  |  |
| C[C@@H](O)[C@H](N)C(=O)O [L-Threonine] | 0.0643 OD (750 nm) |  |  |
| N[C@@H](Cc1c[nH]c2ccccc12)C(=O)O [L-Tryptophan] |  | 0.0299 OD (750 nm) |  |
| N[C@@H](Cc1ccc(O)cc1)C(=O)O [L-Tyrosine] |  | 0.1528 OD (750 nm) |  |
| CC(C)[C@H](N)C(=O)O [L-Valine] | 0.0917 OD (750 nm) | 0.0431 OD (750 nm) |  |
| CN [Methylamine] |  | 0.0398 OD (750 nm) |  |
| CC(=O)N[C@H]1C(O)O[C@H](CO)[C@H](O)[C@@H]1O (stereo partly drawn) [N-Acetyl-D-Galactosamine] |  | 0.0355 OD (750 nm) |  |
| CC(=O)N[C@H]1C(O)O[C@H](CO)[C@@H](O)[C@@H]1O (stereo partly drawn) [N-Acetyl-D-Glucosamine] | 0.0955 OD (750 nm) |  |  |

| Molecule | C. difficile Mass (C. difficile ATCC 9689 [2]; carbon source (PM01/PM02)) | C. difficile Mass (C. difficile ATCC 9689 [2]; [3]) | further results |
| --- | --- | --- | --- |
| CC(=O)N[C@H]1[C@H]([C@H](O)[C@H](O)CO)OC(O)(C(=O)O)C[C@@H]1O (stereo partly shown) [N-Acetyl-Neuraminic acid] | 0.1163 OD (750 nm) |  |  |
| CCCCCN [N-Amylamine] |  | 0.0433 OD (750 nm) |  |
| NCCCCN [Putrescine] |  | 0.0339 OD (750 nm) |  |
| CC(=O)C(=O)O [Pyruvic Acid] | 0.093 OD (750 nm) |  |  |
| OCc1ccccc1O[C@@H]1O[C@H](CO)[C@@H](O)[C@H](O)[C@H]1O [Salicin] | 0.1291 OD (750 nm) |  |  |
| NCCS(=O)(=O)O [Taurine] |  |  | C. difficile Mass (C. difficile ATCC 9689 [2]; [4]): 0.0505 OD (750 nm) |
| C[C@H](CCC(=O)NCCS(=O)(=O)O)[C@H]1CC[C@H]2[C@@H]3[C@H](O)C[C@@H]4C[C@H](O)CC[C@]4(C)[C@H]3C[C@H](O)[C@]12C [Taurocholic acid] |  |  | C. difficile Mass (C. difficile ATCC 9689 [2]; [4]): 0.0536 OD (750 nm) |
| O=S1(=O)CCCC1 [Tetramethylene Sulfone] |  |  | C. difficile Mass (C. difficile ATCC 9689 [2]; [4]): 0.0442 OD (750 nm) |
| Cc1cn([C@H]2C[C@H](O)[C@@H](CO)O2)c(=O)[nH]c1=O [Thymidine] |  | 0.0384 OD (750 nm) |  |
| Cc1c[nH]c(=O)[nH]c1=O [Thymine] |  | 0.0338 OD (750 nm) |  |
| NCCc1ccc(O)cc1 [Tyramine] |  | 0.0442 OD (750 nm) |  |
| O=c1cc[nH]c(=O)[nH]1 [Uracil] |  | 0.0375 OD (750 nm) |  |
| O=c1[nH]c(=O)c2[nH]c(=O)[nH]c2[nH]1 [Uric acid] |  | 0.0556 OD (750 nm) |  |
| O=c1ccn([C@@H]2O[C@H](CO)[C@@H](O)[C@H]2O)c(=O)[nH]1 [Uridine] |  | 0.0373 OD (750 nm) |  |
| O=c1[nH]c(=O)c2[nH]cnc2[nH]1 [Xanthine] |  | 0.2978 OD (750 nm) |  |
| O=c1[nH]c(=O)c2ncn([C@@H]3O[C@H](CO)[C@@H](O)[C@H]3O)c2[nH]1 [Xanthosine] |  | 0.0516 OD (750 nm) |  |
| Nc1ccc(S(=O)(=O)O)cc1 [p-Aminobenzene Sulfonic acid] |  |  | C. difficile Mass (C. difficile ATCC 9689 [2]; [4]): 0.0485 OD (750 nm) |
| NCCc1ccccc1 [β-Phenylethylamine] | 0.0477 OD (750 nm) | 0.0448 OD (750 nm) |  |
| NCCCC(=O)O [γ-Aminobutyric acid] |  | 0.0375 OD (750 nm) |  |
| Dextrin | 0.0478 OD (750 nm) |  |  |
